According to patent US20250197372A1 (priority 2020, published 2025):

Tests used:
[1] = target: rat sucrase (partially purified alpha-glucosidase from intestinal rat powder) (Rattus norvegicus, UniProt P23739); assay: Intestinal alpha-glucosidase assay, sucrose substrate (Glucose GO Kit); type: biochemical
Procedure, shortened: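 Partially purified rat intestinal alpha-glucosidase preincubated 60 min at 37 °C with serial compound dilutions, then sucrose substrate added for 30 min at 37 °C. Reaction stopped by 5 min at 90 °C; released glucose detected with Glucose GO kit. IC50 from 4-PL fit of % inhibition vs concentration.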

[2] = target: T1, recombinant alpha-glucosidase I (human full-length glucosidase I, Glu 1) (Homo sapiens, UniProt Q13724); assay: Alpha-glucosidase I assay (Amplex Red glucose detection, synthetic trisaccharide substrate); type: biochemical; details: Glucosidase 1; read-out: Glu 1 IC50
T1 construct: 6-His (C); made in house; host or cells: HEK-293T cells transduced with BacMam virus (virus raised in Sf9)
T1 sequence (Q13724 1-837): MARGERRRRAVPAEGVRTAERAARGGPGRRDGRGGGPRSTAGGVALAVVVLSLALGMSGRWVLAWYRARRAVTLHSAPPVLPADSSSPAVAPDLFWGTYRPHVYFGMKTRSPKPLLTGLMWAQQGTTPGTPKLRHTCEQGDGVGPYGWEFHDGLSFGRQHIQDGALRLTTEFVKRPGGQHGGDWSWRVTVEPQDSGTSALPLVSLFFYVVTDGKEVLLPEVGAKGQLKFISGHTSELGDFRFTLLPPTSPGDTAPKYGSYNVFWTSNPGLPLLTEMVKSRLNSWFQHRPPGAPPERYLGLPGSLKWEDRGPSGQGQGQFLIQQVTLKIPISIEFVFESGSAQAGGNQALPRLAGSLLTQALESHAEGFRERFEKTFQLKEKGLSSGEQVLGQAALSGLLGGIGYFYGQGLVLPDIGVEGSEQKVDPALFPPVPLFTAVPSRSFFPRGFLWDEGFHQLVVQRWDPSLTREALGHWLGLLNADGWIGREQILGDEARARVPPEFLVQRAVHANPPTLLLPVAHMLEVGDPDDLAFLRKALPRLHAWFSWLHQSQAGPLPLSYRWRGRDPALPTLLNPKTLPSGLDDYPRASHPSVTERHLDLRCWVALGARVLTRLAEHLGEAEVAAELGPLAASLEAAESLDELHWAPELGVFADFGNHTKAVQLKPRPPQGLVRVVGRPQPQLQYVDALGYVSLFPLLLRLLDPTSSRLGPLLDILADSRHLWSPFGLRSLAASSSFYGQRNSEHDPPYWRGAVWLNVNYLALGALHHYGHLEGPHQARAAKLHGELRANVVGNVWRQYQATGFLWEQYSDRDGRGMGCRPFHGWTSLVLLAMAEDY
Procedure, shortened: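 Human full-length glucosidase I, His-tagged, […] and Ni-purified. Enzyme preincubated with compound dilutions 60 min at 37° C, then synthetic trisaccharide substrate 90 min at 37° C; stopped with 1.5M Tris pH 8.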

Chain of rat sucrase (partially purified alpha-glucosidase from intestinal rat powder) (P23739 whole entry): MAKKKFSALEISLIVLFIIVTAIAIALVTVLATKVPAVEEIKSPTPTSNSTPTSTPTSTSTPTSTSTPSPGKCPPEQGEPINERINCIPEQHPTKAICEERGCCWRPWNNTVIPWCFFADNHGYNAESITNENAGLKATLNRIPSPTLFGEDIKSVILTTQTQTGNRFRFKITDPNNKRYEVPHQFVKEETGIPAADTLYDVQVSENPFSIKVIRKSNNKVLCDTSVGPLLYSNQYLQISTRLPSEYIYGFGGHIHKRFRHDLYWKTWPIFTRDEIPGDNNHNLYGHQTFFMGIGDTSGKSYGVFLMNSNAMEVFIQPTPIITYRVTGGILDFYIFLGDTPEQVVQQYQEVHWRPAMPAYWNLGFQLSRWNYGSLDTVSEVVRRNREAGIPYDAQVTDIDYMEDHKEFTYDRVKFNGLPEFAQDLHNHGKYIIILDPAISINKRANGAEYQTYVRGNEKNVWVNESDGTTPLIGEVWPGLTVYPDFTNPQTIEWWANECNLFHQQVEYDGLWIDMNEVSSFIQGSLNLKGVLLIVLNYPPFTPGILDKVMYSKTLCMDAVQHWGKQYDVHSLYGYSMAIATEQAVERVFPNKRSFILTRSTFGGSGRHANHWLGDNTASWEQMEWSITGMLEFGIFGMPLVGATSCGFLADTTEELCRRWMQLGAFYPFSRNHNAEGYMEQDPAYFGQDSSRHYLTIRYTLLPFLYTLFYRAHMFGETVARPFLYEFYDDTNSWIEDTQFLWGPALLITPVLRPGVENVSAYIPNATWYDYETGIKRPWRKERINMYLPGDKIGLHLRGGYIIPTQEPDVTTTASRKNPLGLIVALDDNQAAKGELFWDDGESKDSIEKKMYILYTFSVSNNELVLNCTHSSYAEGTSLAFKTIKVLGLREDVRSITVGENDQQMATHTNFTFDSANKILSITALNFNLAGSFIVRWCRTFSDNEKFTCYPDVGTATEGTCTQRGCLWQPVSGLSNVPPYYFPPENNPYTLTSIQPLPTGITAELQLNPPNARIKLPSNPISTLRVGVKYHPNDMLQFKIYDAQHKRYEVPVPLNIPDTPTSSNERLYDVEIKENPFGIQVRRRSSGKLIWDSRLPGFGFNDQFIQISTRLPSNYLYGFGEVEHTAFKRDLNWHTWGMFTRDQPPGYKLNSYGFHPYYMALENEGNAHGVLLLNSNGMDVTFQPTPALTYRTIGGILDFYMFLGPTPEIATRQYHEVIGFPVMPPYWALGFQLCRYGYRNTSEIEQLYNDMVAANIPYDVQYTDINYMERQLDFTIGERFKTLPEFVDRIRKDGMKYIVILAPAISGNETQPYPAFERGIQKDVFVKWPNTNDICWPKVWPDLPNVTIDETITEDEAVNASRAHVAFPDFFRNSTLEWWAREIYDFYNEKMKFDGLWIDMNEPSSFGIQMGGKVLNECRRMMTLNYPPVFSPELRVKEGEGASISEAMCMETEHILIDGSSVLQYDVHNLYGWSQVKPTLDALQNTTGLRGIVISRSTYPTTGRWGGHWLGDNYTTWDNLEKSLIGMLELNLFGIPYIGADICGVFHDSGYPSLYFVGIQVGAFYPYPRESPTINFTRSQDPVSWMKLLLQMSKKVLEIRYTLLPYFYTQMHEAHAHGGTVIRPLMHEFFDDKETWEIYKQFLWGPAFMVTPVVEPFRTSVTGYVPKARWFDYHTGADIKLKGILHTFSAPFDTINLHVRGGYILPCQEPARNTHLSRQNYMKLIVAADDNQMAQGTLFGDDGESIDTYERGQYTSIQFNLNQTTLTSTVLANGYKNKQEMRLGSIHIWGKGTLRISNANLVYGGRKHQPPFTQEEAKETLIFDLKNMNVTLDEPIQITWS

| SMILES | IC50 [1] [nM] | IC50 [2] [nM] |
| --- | --- | --- |
| Cc1cc(NCc2cccc(CN3C[C@H](O)[C@@H](O)[C@H](O)[C@H]3CO)n2)cc(-c2ncccn2)c1 [Compound 1322, (2R,3R,4R,5S)-2-(hydroxymethyl)-1-{[6-({[3-methyl-5-(pyrimidin-2-yl)phenyl]amino}methyl)pyridin-2-yl]methyl}piperidine-3,4,5-triol] | 481 | 3120 |
| Cc1cc(NCc2ccc(CN3C[C@H](O)[C@@H](O)[C@H](O)[C@H]3CO)cc2)cc(-n2ccnn2)c1 [Compound 1323, (2R,3R,4R,5S)-2-(hydroxymethyl)-1-{[4-({[3-methyl-5-(1H-1,2,3-triazol-1-yl)phenyl]amino}methyl)phenyl]methyl}piperidine-3,4,5-triol] | 37 | 11 |
| OC[C@@H]1[C@@H](O)[C@H](O)[C@@H](O)CN1Cc1cnc(CNc2cc(-c3ncccn3)cc(C3CC3)c2)cn1 [Compound 1329, (2R,3R,4R,5S)-1-{[5-({[3-cyclopropyl-5-(pyrimidin-2-yl)phenyl]amino}methyl)pyrazin-2-yl]methyl}-2-(hydroxymethyl)piperidine-3,4,5-triol] | 675 | 1870 |
| Cc1cc(NCc2cnc(CN3C[C@H](O)[C@@H](O)[C@H](O)[C@H]3CO)cn2)cc(-c2ccc[nH]2)c1 [Compound 1330, (2R,3R,4R,5S)-2-(hydroxymethyl)-1-{[5-({[3-methyl-5-(1H-pyrrol-2-yl)phenyl]amino}methyl)pyrazin-2-yl]methyl}piperidine-3,4,5-triol] | 595 | 1420 |
| Cc1cc(NCc2cnc(CN3C[C@H](O)[C@@H](O)[C@H](O)[C@H]3CO)cn2)cc(N2CCOCC2)c1 [Compound 1332, (2R,3R,4R,5S)-2-(hydroxymethyl)-1-{[5-({[3-methyl-5-(morpholin-4-yl)phenyl]amino}methyl)pyrazin-2-yl]methyl}piperidine-3,4,5-triol] | 3500 | 2820 |
| OC[C@@H]1[C@@H](O)[C@H](O)[C@@H](O)CN1Cc1cccc(CNc2cc(-c3ncccn3)cc(C3CC3)c2)n1 [Compound 1333, (2R,3R,4R,5S)-1-{[6-({[3-cyclopropyl-5-(pyrimidin-2-yl)phenyl]amino}methyl)pyridin-2-yl]methyl}-2-(hydroxymethyl)piperidine-3,4,5-triol] | 1590 | 4530 |
| Cc1cc(NCc2cccc(CN3C[C@H](O)[C@@H](O)[C@H](O)[C@H]3CO)n2)cc(-c2ccco2)c1 [Compound 1334, (2R,3R,4R,5S)-1-{[6-({[3-(furan-2-yl)-5-methylphenyl]amino}methyl)pyridin-2-yl]methyl}-2-(hydroxymethyl)piperidine-3,4,5-triol] | 336 | 1080 |
| Cc1cc(NCc2cccc(CN3C[C@H](O)[C@@H](O)[C@H](O)[C@H]3CO)n2)cc(N2CCOCC2)c1 [Compound 1336, (2R,3R,4R,5S)-2-(hydroxymethyl)-1-{[6-({[3-methyl-5-(morpholin-4-yl)phenyl]amino}methyl)pyridin-2-yl]methyl}piperidine-3,4,5-triol] | 21300 | 30300 |
| COc1ccc(C#CCCCCCN2C[C@H](O)[C@@H](O)[C@H](O)[C@H]2CO)cc1 [Compound 1338, (2R,3R,4R,5S)-2-(hydroxymethyl)-1-[7-(4-methoxyphenyl)hept-6-yn-1-yl]piperidine-3,4,5-triol] | 371 | 999 |
